A word on the % Inhibition: it is the drop in the measured response relative to a control, in per cent. In general, inhibition refers to the relative decrease from the control value, in per cent. Higher therefore signals a strong effect.

The first assay relates to Hedgehog pathway. The experiment in a line: Hedgehog Pathway Cellular Differentiation Assay (alkaline phosphatase production in C3H10T1/2 cells with Shh ligand). It is filed as cell-based. As to conditions: 3 μM compound, Shh ligand conditioned media, 72 h, alkaline phosphatase. Here is the method:
Hedgehog Pathway Cellular Differentiation Assay The ability of compounds of the invention to inhibit the Hedgehog pathway can be determined by the following cell differentiation assay. C3H10T1/2 cells were plated into 384 well plates at a concentration of 5000 cells/well in DMEM/10% FBS. The following day the media was changed to 20% conditioned media (low serum media DMEM/2% FBS+Shh ligand). Compounds were solubilized in 100% DMSO to a concentration of 10 mM and then serially diluted three fold in 100% DMSO. The highest concentration in the cell plate was 30 μM and the lowest was 3 nM. The compounds were then added to the cells. Cell plates were incubated with the compound for 72 h and then assayed for alkaline phosphatase production using pNp as a substrate. Briefly, after 72 h of incubation, the media was aspirated from the cells and washed with 30 μl of PBS. PBS was aspirated off the cells and 15 μl of 1×RIPA cell lysis buffer is added on to the cells. The cell plates are then incubated at −80° C. for 30 minutes to insure proper cell lysis. The plates were then thawed back to RT. The substrate solution containing pNp at 1 mg/mL in diethanolamine buffer pH 9.8 was then added onto the lysed cells. The plates were incubated at 30° C. for color development and read at an absorbance of 405 nm. The percent inhibition and IC50 value was then calculated from the absorbance data using standard procedures.
Consider `Cc1ccc(-c2ncc[nH]2)cc1NC(=O)c1ccc(OCc2cccc(OCCO)n2)cc1` [Example 122], for which the “% Inhibition at 3 μM” value is reported as 84.6%.

As for `Cc1ccc(-c2ncc[nH]2)cc1NC(=O)c1ccc2c(c1)OCCN2C` [Example 149, N-[5-(1H-imidazol-2-yl)-2-methyl-phenyl]-2-methyl-5-oxa-2-azabicyclo[4.4.0]deca-7,9,11-triene-8-carboxamide], the “% Inhibition at 3 μM” value is listed as 63.4%.

The assay is the same for the next values; noted with them: Mus musculus, C3H 10T1/2, 3 μM compound, Shh ligand conditioned media, 72 h, alkaline phosphatase.
For `Cc1ccc(-c2nccn2C)cc1NC(=O)c1ccc(OCc2ccccc2C#N)cc1` [Example 51, 4-[(2-cyanophenyl)methoxy]-N-[2-methyl-5-(1-methylimidazol-2-yl)phenyl]benzamide], 3 µM produced 82.1% inhibition.

Molecule `COc1ccnc(COc2ccc(C(=O)Nc3cc(-c4ncc[nH]4)ccc3C)cc2)c1OC` [Example 56, 4-[(3,4-dimethoxypyridin-2-yl)methoxy]-N-[5-(1H-imidazol-2-yl)-2-methylphenyl]benzamide] showed an inhibition at 3 µM of 67.4%.

`Cc1ccc(-c2ncc(Cn3cccn3)s2)cc1NC(=O)c1ccc(OCc2ccccn2)cc1` [Example 4, N-[2-methyl-5-[5-(pyrazol-1-ylmethyl)1,3-thiazol-2-yl]phenyl]-4-(pyridin-2-ylmethoxy)benzamide] gave an inhibition at 3 µM of 65.4%.

Turning to `COc1cc(COc2ccc(C(=O)Nc3cc(-c4ncc[nH]4)ccc3C)cc2)cc(OC)c1` [Example 47, 4-[(3,5-dimethoxyphenyl)methoxy]-N-[5-(1H-imidazol-2-yl)-2-methyl-phenyl]benzamide], at 3 µM the inhibition was 80.9%.

In turn, `Cc1ccc(-c2nccn2C)cc1NC(=O)c1ccc(OCc2cc(Oc3ccccc3)ccn2)cc1` [Example 96, N-[2-methyl-5-(1-methyl-1H-imidazol-2-yl)phenyl]-4-[(4-phenoxypyridin-2-yl)methoxy]benzamide] displayed an inhibition at 3 µM of 79.8%.

`Cc1ccc(-c2ncc[nH]2)cc1NC(=O)c1ccc(COc2ccccc2C#N)cc1` [Example 133, 4-[(2-cyanophenoxy)methyl]-N-[5-(1H-imidazol-2-yl)-2-methylphenyl]benzamide] yielded an inhibition at 3 µM of 77%.

As for `Cc1ccc(-c2cnn(CC(C)C)c2)cc1NC(=O)c1ccc(OCc2ccccn2)cc1` [Example 36, N-[2-methyl-5-[1-(2-methylpropyl)pyrazol-4-yl]phenyl]-4-(pyridin-2-ylmethoxy)benzamide], the inhibition at 3 µM is 26.9%.

As to `Cc1ccc(-c2nccn2C)cc1NC(=O)c1ccc(OCc2ccccn2)cc1` [Example 13, N-[2-methyl-5-(1-methylimidazol-2-yl)phenyl]-4-(pyridin-2-ylmethoxy)benzamide], the inhibition at 3 µM came out at 64.9%.

`Cc1cc(Cl)c(-c2cn(C)cn2)cc1NC(=O)c1ccc(OCc2ccccn2)cc1` [Example 75, N-[4-chloro-2-methyl-5-(1-methyl-1H-imidazol-4-yl)phenyl]-4-(pyridin-2-ylmethoxy)benzamide] displayed an inhibition at 3 µM of 77.8%.

The molecule `Cc1cc(Cl)c(-c2ncc[nH]2)cc1NC(=O)c1ccc(OCc2ccccn2)cc1` [Example 76, N-[4-chloro-5-(1H-imidazol-2-yl)-2-methylphenyl]-4-(pyridin-2-ylmethoxy)benzamide] returned an inhibition at 3 µM of 77.6%.

`Cc1ccc(-c2nc3ccccc3s2)cc1NC(=O)c1ccc(OCc2ccccn2)cc1` [Example 17, N-(5-benzothiazol-2-yl-2-methyl-phenyl)-4-(pyridin-2-ylmethoxy)benzamide]: 3 µM produced 53.5% inhibition.

As to `Cc1ccc(-c2ncc[nH]2)cc1NC(=O)c1ccc(OCc2ccccn2)cc1` [Example 29, N-[5-(1H-imidazol-2-yl)-2-methyl-phenyl]-4-(pyridin-2-ylmethoxy)benzamide], testing at 3 µM gave an inhibition of 75.3%.

`Cc1cc(C)c(-c2ncn(C)c2CO)cc1NC(=O)c1ccc(OCc2ccccn2)cc1` [Example 79, N-(5-(5-(hydroxymethyl)-1-methyl-1H-imidazol-4-yl)-2,4-dimethylphenyl)-4-(pyridin-2-ylmethoxy)benzamide] showed an inhibition at 3 µM of 85.9%.

In turn, `Cc1ccc(-c2nccn2C)cc1NC(=O)c1ccc(OCc2cc(N(C)CCN(C)C)ccc2C#N)cc1` [Example 116, 4-[(2-cyano-5-{[2-(dimethylamino)ethyl](methyl)amino}benzyl)oxy]-N-[2-methyl-5-(1-methyl-1H-imidazol-2-yl)phenyl]benzamide] returned an inhibition at 3 µM of 83.4%.

`Cc1ccc(-c2cncn2C)cc1NC(=O)c1ccc(OCc2ccccc2C#N)cc1` [Example 52, 4-[(2-cyanophenyl)methoxy]-N-[2-methyl-5-(3-methylimidazol-4-yl)phenyl]benzamide]: testing at 3 µM gave an inhibition of 79.8%.

Take `Cc1ccc(-c2nc(-c3nccs3)c[nH]2)cc1NC(=O)c1ccc(OCc2ccccn2)cc1` [Example 82, N-{2-methyl-5-[4-(1,3-thiazol-2-yl)-1H-imidazol-2-yl]phenyl}-4-(pyridin-2-ylmethoxy)benzamide]: the inhibition at 3 µM was 68.6%.

The molecule `Cc1ccc(-c2ncc[nH]2)cc1NC(=O)c1ccc(OCc2cccc(C#N)c2)cc1` [Example 61, 4-[(3-cyanobenzyl)oxy]-N-[5-(1H-imidazol-2-yl)-2-methylphenyl]benzamide] displayed an inhibition at 3 µM of 82.1%.

As for `Cc1ccc(-c2cnc(C)n2C)cc1NC(=O)c1ccc(OCc2ccccc2C#N)cc1` [Example 55, 4-[(2-cyanophenyl)methoxy]-N-[5-(2,3-dimethylimidazol-4-yl)-2-methyl-phenyl]benzamide], testing at 3 µM gave an inhibition of 84.3%.

Turning to `Cc1ccc(-c2nccs2)cc1NC(=O)c1ccc(OCc2ccccn2)cc1` [Example 16, N-(2-methyl-5-1,3-thiazol-2-yl-phenyl)-4-(pyridin-2-ylmethoxy)benzamide], 3 µM produced 68.6% inhibition.

`Cc1ccc(-c2ncc[nH]2)cc1NC(=O)c1ccc(OCc2cc(N(C)C)ccn2)cc1` [Example 127, 4-{[4-(dimethylamino)pyridin-2-yl]methoxy}-N-[5-(1H-imidazol-2-yl)-2-methylphenyl]benzamide] returned an inhibition at 3 µM of 76.3%.

On to `Cc1ccc(-c2nccn2Cc2ncccc2Br)cc1NC(=O)c1ccc(OCc2ncccc2Br)cc1` [Example 121, 4-[(3-bromopyridin-2-yl)methoxy]-N-(5-{1-[(3-bromopyridin-2-yl)methyl]-1H-imidazol-2-yl}-2-methylphenyl)benzamide], for which at 3 µM the inhibition was 77.8%.

In turn, `Cc1ccc(-c2ncc[nH]2)cc1NC(=O)c1ccc(OCc2cc(OCCO)ccn2)cc1` [Example 132, N-(5-(1H-imidazol-2-yl)-2-methylphenyl)-4-((4-(2-hydroxyethoxy)pyridin-2-yl)methoxy)benzamide] registered an inhibition at 3 µM of 77.1%.

The molecule `Cc1ccc(-c2ncc[nH]2)cc1NC(=O)c1cccc(Cl)c1` [Example 152, 3-chloro-N-[5-(1H-imidazol-2-yl)-2-methyl-phenyl]benzamide] displayed an inhibition at 3 µM of 45.3%.

The molecule `COc1cc(COc2ccc(C(=O)Nc3cc(-c4nc(C)cn4C)ccc3C)cc2)cc(OC)c1` [Example 42, 4-[(3,5-dimethoxyphenyl)methoxy]-N-[5-(1,4-dimethylimidazol-2-yl)-2-methyl-phenyl]benzamide] registered an inhibition at 3 µM of 79.4%.

As for `COc1ccc(COc2ccc(C(=O)Nc3cc(-c4ncc[nH]4)ccc3C)cc2)nc1` [Example 130, N-(5-(1H-imidazol-2-yl)-2-methylphenyl)-4-((5-methoxypyridin-2-yl)methoxy)benzamide], 3 µM produced 91.9% inhibition.

Molecule `Cc1ccc(-c2cn(C)cn2)cc1NC(=O)c1ccc(OCc2ccccn2)cc1` [Example 21, N-[2-methyl-5-(1-methyl-1H-imidazol-4-yl)phenyl]-4-(pyridin-2-ylmethoxy)benzamide] returned an inhibition at 3 µM of 73.4%.

For `COc1cccc(COc2ccc(C(=O)Nc3cc(-c4ncc[nH]4)ccc3C)cc2)n1` [Example 123, N-(5-(1H-imidazol-2-yl)-2-methylphenyl)-4-((6-methoxypyridin-2-yl)methoxy)benzamide], the inhibition at 3 µM was determined as 84.7%.

On to `Cc1ccc(-c2ncc[nH]2)cc1NC(=O)c1ccc(N2CCOCC2)nc1` [Example 153, N-[5-(1H-imidazol-2-yl)-2-methyl-phenyl]-6-morpholin-4-yl-pyridine-3-carboxamide], for which testing at 3 µM gave an inhibition of 53.7%.

`Cc1ccc(-c2ncc[nH]2)cc1NC(=O)c1ccc(OCc2cc(N3CCN(CCO)CC3)ccn2)cc1` [Example 90, 4-({4-[4-(2-hydroxyethyl)piperazin-1-yl]pyridin-2-yl}methoxy)-N-[5-(1H-imidazol-2-yl)-2-methylphenyl]benzamide]: the inhibition at 3 µM was 61.5%.

As to `Cc1ccc(-c2nc[nH]c2C)cc1NC(=O)c1ccc(OCc2ccccc2C#N)cc1` [Example 54, 4-[(2-cyanophenyl)methoxy]-N-[2-methyl-5-(5-methyl-1H-imidazol-4-yl)phenyl]benzamide], the inhibition at 3 µM was determined as 77.5%.

In turn, `Cc1ccc(-c2cnn(C)c2)cc1NC(=O)c1ccc(OCc2ccccn2)cc1` [Example 33, N-[2-methyl-5-(1-methylpyrazol-4-yl)phenyl]-4-(pyridin-2-ylmethoxy)benzamide] came in with an inhibition at 3 µM of 54.7%.

For `COc1cc(COc2ccc(C(=O)Nc3cc(-c4nccn4C)ccc3C)cc2)cc(OC)c1` [Example 50, 4-[(3,5-dimethoxyphenyl)methoxy]-N-[2-methyl-5-(1-methylimidazol-2-yl)phenyl]benzamide], the inhibition at 3 µM amounted to 80.5%.

Source of the values: patent publication US20100311748A1, “HETEROCYCLIC AMIDES USEFUL FOR THE TREATMENT OF CANCER AND PSORIASIS” (ASTRAZENECA AB, priority 2007, published 2010).
